Assay results from US9686986B2, “Herbicidal compounds” (SYNGENTA LIMITED, priority 2011, dated 2017).

Assays:
Assay in all cases: Glasshouse herbicide test, pre- and post-emergence, percentage damage
Format in all cases: in vivo
[1] = test system: Amaranthus retoflexus (AMARE); conditions: 1000 g/h, evaluated after 13 days; for percentage damage caused to the plant, AMARE, POST Application: post-emergence; for percentage damage caused to the plant, AMARE, PRE Application: pre-emergence
Procedure: (§1) Seeds of a variety of test species are sown in standard soil in pots (Alopecurus myosuroides (ALOMY), Setaria faberi (SETFA), Stellaria media (STEME), Echinochloa crus-galli (ECHCG), Solanum nigrum (SOLNI), Amaranthus retoflexus (AMARE), Ipomoea hederacea (IPOHE), Lolium perenne (LOLPE). After cultivation for one day (pre-emergence) or after 8 days cultivation (post-emergence) under controlled conditions in a glasshouse (at 24/16° C., day/night; 14 hours light; 65% humidity), the plants are sprayed with an aqueous spray solution derived from the formulation of the technical active ingredient in acetone/water (50:50) solution containing 0.5% Tween 20 (polyoxyethelyene sorbitan monolaurate, CAS RN 9005-64-5). Compounds ae applied at 1000 g/h. The test plants are then grown in a glasshouse under controlled conditions in a glasshouse (at 24/16° C., day/night; 14 hours light; 65% humidity) and watered twice daily. After 13 days for pre and post-emergence, the test is evaluated for the percentage damage caused to the plant. The biological activities are shown in the following table on a five point scale (5=80-100%; 4=60-79%; 3=40-59%; 2=20-39%; 1=0-19%).

DIGSA = conditions: 1000 g/h, evaluated after 13 days, five point scale; for percentage damage caused to the plant, DIGSA, POST Application: post-emergence; for percentage damage caused to the plant, DIGSA, PRE Application: pre-emergence
Procedure: [The source words this procedure for another organism and reports this organism under the same test.] as §1

Lolium perenne (LOLPE) = conditions: 1000 g/h, evaluated after 13 days, five point scale; for percentage damage caused to the plant, LOLPE, POST Application: post-emergence; for percentage damage caused to the plant, LOLPE, PRE Application: pre-emergence
Procedure: as §1

Stellaria media (STEME) = conditions: 1000 g/h, evaluated after 13 days, five point scale; for percentage damage caused to the plant, STEME, POST Application: post-emergence; for percentage damage caused to the plant, STEME, PRE Application: pre-emergence
Procedure: as §1

[2] = test system: Alopecurus myosuroides (ALOMY); conditions: 1000 g/h, evaluated after 13 days, five point scale; for percentage damage caused to the plant, ALOMY, POST Application: post-emergence; for percentage damage caused to the plant, ALOMY, PRE Application: pre-emergence
Procedure: as §1

[3] = test system: Echinochloa crus-galli (ECHCG); conditions: 1000 g/h, evaluated after 13 days, five point scale; for percentage damage caused to the plant, ECHCG, POST Application: post-emergence; for percentage damage caused to the plant, ECHCG, PRE Application: pre-emergence
Procedure: as §1

[4] = test system: Ipomoea hederacea (IPOHE); conditions: 1000 g/h, evaluated after 13 days, five point scale; for percentage damage caused to the plant, IPOHE, POST Application: post-emergence; for percentage damage caused to the plant, IPOHE, PRE Application: pre-emergence
Procedure: as §1

Setaria faberi (SETFA) = conditions: 1000 g/h, evaluated after 13 days, five point scale; for percentage damage caused to the plant, SETFA, POST Application: post-emergence; for percentage damage caused to the plant, SETFA, PRE Application: pre-emergence
Procedure: as §1

Solanum nigrum (SOLNI) = conditions: 1000 g/h, evaluated after 13 days, five point scale; for percentage damage caused to the plant, SOLNI, POST Application: post-emergence; for percentage damage caused to the plant, SOLNI, PRE Application: pre-emergence
Procedure: as §1

Structure (SMILES)	percentage damage caused to the plant, AMARE, POST Application ([1]; five point scale (Table B2))	percentage damage caused to the plant, AMARE, PRE Application ([1]; five point scale (Table B2))	percentage damage caused to the plant, DIGSA, POST Application (DIGSA)	percentage damage caused to the plant, DIGSA, PRE Application (DIGSA)	percentage damage caused to the plant, LOLPE, POST Application (Lolium perenne (LOLPE))	percentage damage caused to the plant, LOLPE, PRE Application (Lolium perenne (LOLPE))	percentage damage caused to the plant, STEME, POST Application (Stellaria media (STEME))	percentage damage caused to the plant, STEME, PRE Application (Stellaria media (STEME))	percentage damage caused to the plant, ALOMY, POST Application [2]	percentage damage caused to the plant, ALOMY, PRE Application [2]	percentage damage caused to the plant, AMARE, POST Application ([1]; five point scale (Table B1))	percentage damage caused to the plant, AMARE, PRE Application ([1]; five point scale (Table B1))	percentage damage caused to the plant, ECHCG, POST Application [3]	percentage damage caused to the plant, ECHCG, PRE Application [3]	percentage damage caused to the plant, IPOHE, POST Application [4]	percentage damage caused to the plant, IPOHE, PRE Application [4]	percentage damage caused to the plant, SETFA, POST Application (Setaria faberi (SETFA))	percentage damage caused to the plant, SETFA, PRE Application (Setaria faberi (SETFA))	percentage damage caused to the plant, SOLNI, POST Application (Solanum nigrum (SOLNI))	percentage damage caused to the plant, SOLNI, PRE Application (Solanum nigrum (SOLNI))
COCc1nc(C(C)F)ccc1C(=O)Nc1nnnn1C (centres unmarked) [Compound 1.007]	5 (5=80-100%)	5 (5=80-100%)	5 (5=80-100%)	3 (3=40-59%)	2 (2=20-39%)	1 (1=0-19%)	5 (5=80-100%)	4 (4=60-79%)	–	–	–	–	–	–	–	–	–	–	–	–
COc1ccc2cc(C(=O)Nc3nnn[nH]3)c(C(F)(F)F)nc2n1 [Compound 2.001]	3 (3=40-59%)	1 (1=0-19%)	1 (1=0-19%)	1 (1=0-19%)	1 (1=0-19%)	1 (1=0-19%)	3 (3=40-59%)	1 (1=0-19%)	–	–	–	–	–	–	–	–	–	–	–	–
CCCn1nnnc1NC(=O)c1cccc(Cl)c1Cl [Compound 1.016]	3 (3=40-59%)	4 (4=60-79%)	1 (1=0-19%)	1 (1=0-19%)	1 (1=0-19%)	1 (1=0-19%)	1 (1=0-19%)	2 (2=20-39%)	–	–	–	–	–	–	–	–	–	–	–	–
Cc1nc(C(C)F)ccc1C(=O)Nc1nnnn1C (centres unmarked) [Compound 1.006]	5 (5=80-100%)	5 (5=80-100%)	5 (5=80-100%)	4 (4=60-79%)	5 (5=80-100%)	4 (4=60-79%)	5 (5=80-100%)	4 (4=60-79%)	–	–	–	–	–	–	–	–	–	–	–	–
CS(=O)(=O)c1ccc(C(=O)Nc2nnn[nH]2)c(Cl)c1COCC(F)(F)F [Compound 1.002]	5 (5=80-100%)	5 (5=80-100%)	1 (1=0-19%)	1 (1=0-19%)	1 (1=0-19%)	1 (1=0-19%)	2 (2=20-39%)	1 (1=0-19%)	–	–	–	–	–	–	–	–	–	–	–	–
COc1cc2cc(C(=O)Nc3nnnn3C)c(C(F)(F)F)nc2nc1C [Compound 2.003]	5 (5=80-100%)	5 (5=80-100%)	4 (4=60-79%)	1 (1=0-19%)	2 (2=20-39%)	1 (1=0-19%)	5 (5=80-100%)	1 (1=0-19%)	–	–	–	–	–	–	–	–	–	–	–	–
Cc1nc2nc(C(F)(F)F)c(C(=O)Nc3nnnn3C)cc2cc1F [Compound 2.002]	5 (5=80-100%)	5 (5=80-100%)	4 (4=60-79%)	3 (3=40-59%)	2 (2=20-39%)	2 (2=20-39%)	5 (5=80-100%)	3 (3=40-59%)	–	–	–	–	–	–	–	–	–	–	–	–
Cn1nnnc1NC(=O)c1cc(Br)c(Cl)cc1F [Compound 1.012]	–	–	–	–	–	–	–	–	2 (2=20-39%)	1 (1=0-19%)	5 (5=80-100%)	4 (4=60-79%)	3 (3=40-59%)	1 (1=0-19%)	5 (5=80-100%)	1 (1=0-19%)	4 (4=60-79%)	1 (1=0-19%)	4 (4=60-79%)	1 (1=0-19%)
Cn1nnnc1NC(=O)c1ccc(C(F)(F)F)cc1S(C)(=O)=O [Compound 1.003]	–	–	–	–	–	–	–	–	5 (5=80-100%)	5 (5=80-100%)	5 (5=80-100%)	5 (5=80-100%)	5 (5=80-100%)	5 (5=80-100%)	5 (5=80-100%)	5 (5=80-100%)	5 (5=80-100%)	5 (5=80-100%)	5 (5=80-100%)	5 (5=80-100%)
COCCOCc1nc(C(C)(F)F)ccc1C(=O)Nc1nnnn1C [Compound 1.008]	–	–	–	–	–	–	–	–	5 (5=80-100%)	5 (5=80-100%)	5 (5=80-100%)	5 (5=80-100%)	5 (5=80-100%)	5 (5=80-100%)	5 (5=80-100%)	5 (5=80-100%)	5 (5=80-100%)	5 (5=80-100%)	5 (5=80-100%)	5 (5=80-100%)
Cc1ccc(C(F)(F)F)c(C(=O)Nc2nnnn2C)c1 [Compound 1.014]	–	–	–	–	–	–	–	–	3 (3=40-59%)	4 (4=60-79%)	5 (5=80-100%)	5 (5=80-100%)	3 (3=40-59%)	3 (3=40-59%)	5 (5=80-100%)	4 (4=60-79%)	1 (1=0-19%)	1 (1=0-19%)	5 (5=80-100%)	5 (5=80-100%)
